Columns and labels:
MASP-2 (CCP1-CCP2-SP) = target: T1, MASP-2 (CCP1-CCP2-SP) (Homo sapiens, UniProt O00187); assay: Enzymatic assay for MASP-2 inhibitory activity (fluorogenic substrate); type: biochemical; settings: room temperature, 20 mM Hepes pH 7.4, 20 min
T1 construct: 15 μL of Enzyme MASP-2 (CCP1-CCP2-SP) in Assay Buffer
Summary of the method: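 Human MASP-2 CCP1-CCP2-SP construct with a C2-cleavage-site fluorogenic substrate in 20 mM HEPES pH 7.4, 140 mM NaCl, 0.1% Tween 20, 20 min at room temperature before acetic acid stop. Activity normalised to DMSO and no-enzyme controls; IC50 taken as equivalent to Ki under linear conditions.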

human a-thrombin = target: T2, human a-thrombin (Homo sapiens, UniProt P00734); assay: Enzymatic assay for thrombin (fluorogenic peptide substrate Boc-VPR-AMC); type: biochemical; settings: room temperature, 20 mM Hepes pH 7.4, 20 min
T2 construct: enzyme (human a-thrombin (BioPharm® Lab.)); purchased BioPharm Lab
Summary of the method: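 Human α-thrombin was incubated with serially diluted compound and fluorogenic substrate Boc-VPR-AMC in 20 mM Hepes pH 7.4, 140 mM NaCl, 0.1% Tween 20 at room temperature. The reaction was stopped after 20 min with 0.1 M acetic acid and fluorescence read. % activity was normalized to DMSO and no-enzyme controls, and IC50 was taken as equivalent to Ki.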

[1] = tested on: Lectin Pathway Activation (LPA) in human serum; assay: Lectin pathway activation (LPA) assay in human serum, C4 deposition on mannan-coated plate; type: biochemical; settings: 1% pooled human serum, 55 minutes, room temperature
Protocol: A Microtiter ELISA plate (Nunc-Maxi Sorp; Sigma-Aldrich®, USA) was coated with mannan sourced from Saccharomyces cerevisiae (Sigma-Aldrich®, USA) in a coating buffer comprising 33.3 mM Na2CO3 and 166.67 mM NaHCO3. The plates were incubated at room temperature overnight. Subsequently, the plates were blocked with a 5% bovine serum albumin solution (Sigma-Aldrich®, USA) prepared in PBST for 2 hours at room temperature with agitation. Varying concentrations of MASP-2 inhibitors were dispensed onto the empty plate.
To perform the assay, pooled human serum was diluted to 1% in a solution of 20 mM HEPES (pH=7.4), 140 mM NaCl, and 1 mM MgCl2. Then, 40 μl of the diluted human serum was dispensed into each well of the Microtiter ELISA plate and incubated for 55 minutes at room temperature. The C4 deposition on the mannan-coated surface was stopped using an EDTA stop solution (20 mM HEPES, pH=7.4, 140 mM NaCl, and 150 mM EDTA). Subsequently, rabbit anti-Human C4c antibody (Agilent Technologies, USA) prepared in PBST was added, and the plates were incubated at room temperature for 30 minutes with agitation, then washed with PBST, and Goat anti-rabbit IgG(H+L) HRP-conjugated (Southern Biotech®, USA) was added. The plates were again incubated at room temperature for 30 minutes with agitation, and then were washed with PBST. Following this, the Amplex® UltraRed® (Thermo Fischer Sci, USA) substrate solution was added for 16 minutes, followed by the addition of the Amplex® UltraRed® stop solution. The plates' fluorescence was measured using an i3× microplate reader (Molecular Devices, USA) with excitation at 550 nm and emission at 580 nm. The raw data generated from the plate reader was exported to GraphPad Prism® (version 10.0.3), and the non-linear regression curve was generated using the 4-parameter logistic fit equation. All data are reported as pIC50 with a 95% confidence interval.

[2] = tested on: microvascular endothelial cell injury; settings: tissue culture model; cited from earlier work
severe IgA nephropathy = settings: cited from earlier work
HSCT-TMA = settings: once-weekly treatment, HSCT-TMA patients; cited from earlier work

T1 sequence (O00187 287-686 limits assumed): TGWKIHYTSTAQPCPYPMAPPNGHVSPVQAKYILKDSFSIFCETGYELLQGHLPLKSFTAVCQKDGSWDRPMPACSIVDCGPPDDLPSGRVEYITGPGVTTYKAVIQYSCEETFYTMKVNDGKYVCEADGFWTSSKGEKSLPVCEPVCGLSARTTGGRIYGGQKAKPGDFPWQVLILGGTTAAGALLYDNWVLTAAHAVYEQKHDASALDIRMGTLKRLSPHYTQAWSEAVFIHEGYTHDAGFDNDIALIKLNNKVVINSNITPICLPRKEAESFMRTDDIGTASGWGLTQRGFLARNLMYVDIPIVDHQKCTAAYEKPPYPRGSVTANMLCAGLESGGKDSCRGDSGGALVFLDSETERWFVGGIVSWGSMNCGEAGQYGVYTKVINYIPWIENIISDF

| Compound | Ki (MASP-2 (CCP1-CCP2-SP)) [nM] | Ki (human a-thrombin) [nM] | IC50 [1] [nM] | effect on HSCT-TMA plasma-mediated endothelial damage [2] | tolerability (severe IgA nephropathy; human, in vivo) | urine protein excretion decrease from baseline (severe IgA nephropathy; once-weekly treatment, after 3 years of follow-up) [%] | annualized rate of kidney function decline (severe IgA nephropathy; once-weekly treatment, after 3 years of follow-up, matched external comparator group 8.6) [mL/min/yr] | response rate based on improvement in laboratory TMA markers and clinical benefit (HSCT-TMA) [%] |
| --- | --- | --- | --- | --- | --- | --- | --- | --- |
| N#CC1C2CC1C2CNc1cnc2n(c1=O)[C@H](C(=O)N[C@@H]1CCc3nc(N)ccc31)CC2 (stereo partly drawn) [Compound 86, (6S)—N—((R)-2-amino-6,7-dihydro-5H-cyclopenta[b]pyridin-5-yl)-3-(((4-cyanobicyclo[1.1.1]pentan-2-yl)methyl)amino)-4-oxo-4,6,7,8-tetrahydropyrrolo[1,2-a]pyrimidine-6-carboxamide] | < 500 | > 25000 | < 500 | – | – | – | – | – |
| N#Cc1cc(CNc2cnc3n(c2=O)[C@H](C(=O)N[C@@H]2CCc4nc(N)ccc42)CC3)cc(C(F)(F)F)c1 [Compound 90, (S)-N-((R)-2-amino-6,7-dihydro-5H-cyclopenta[b]pyridin-5-yl)-3-((3-cyano-5-(trifluoromethyl)benzyl)amino)-4-oxo-4,6,7,8-tetrahydropyrrolo[1,2-a]pyrimidine-6-carboxamide] | < 500 | 500 to 2500 | < 500 | – | – | – | – | – |
| Cc1ccc(C)c(CNc2cnc3n(c2=O)[C@H](C(=O)N[C@@H]2CCc4nc(N)ccc42)CC3)c1 [Compound 94] | < 500 | 500 to 2500 | < 500 | – | – | – | – | – |
| Cc1ccc(F)c(CNc2cnc3n(c2=O)[C@H](C(=O)N[C@@H]2CCc4nc(N)ccc42)CC3)c1 [Compound 95] | < 500 | 500 to 2500 | < 500 | – | – | – | – | – |
| narsoplimab | – | – | – | reduce HSCT-TMA plasma-mediated endothelial damage | well tolerated | 38 | 5.2 | 61 |

The next lines start with results.

| Ki (MASP-2 (CCP1-CCP2-SP)) [nM] | Ki (human a-thrombin) [nM] | IC50 [1] [nM] | Compound | effect on HSCT-TMA plasma-mediated endothelial damage [2] | tolerability (severe IgA nephropathy; human, in vivo) | urine protein excretion decrease from baseline (severe IgA nephropathy; once-weekly treatment, after 3 years of follow-up) [%] | annualized rate of kidney function decline (severe IgA nephropathy; once-weekly treatment, after 3 years of follow-up, matched external comparator group 8.6) [mL/min/yr] | response rate based on improvement in laboratory TMA markers and clinical benefit (HSCT-TMA) [%] |
| --- | --- | --- | --- | --- | --- | --- | --- | --- |
| < 500 | 500 to 2500 | < 500 | CS(=O)(=O)c1cccc(CNc2cnc3n(c2=O)[C@H](C(=O)N[C@@H]2CCc4nc(N)ccc42)CC3)c1 [Compound 97] | – | – | – | – | – |
| < 500 | 2500 to 10000 | < 500 | Nc1ccc2c(n1)CC[C@H]2NC(=O)[C@@H]1CCc2ncc(NCc3ccc4c(c3)COC4)c(=O)n21 [Compound 100] | – | – | – | – | – |
| < 500 | 2500 to 10000 | < 500 | Nc1ccc2c(n1)CC[C@H]2NC(=O)[C@@H]1CCc2ncc(NCc3cccc(C(F)(F)F)c3)c(=O)n21 [Compound 105] | – | – | – | – | – |
| < 500 | > 25000 | < 500 | Cc1cc(C)cc(CNc2cnc3n(c2=O)[C@H](C(=O)N[C@H](C)c2cc4c(s2)CNC4)CC3)c1 [Compound 106] | – | – | – | – | – |
